{
  "source": "patent US6586216B2",
  "about": "(Purdue Research Foundation, priority 1997, dated 2003)",
  "type_in_all_cases": "biochemical",
  "key": {"[1]": {"target": "T1, glutamine PRPP amidotransferase S283A mutant enzyme (Bacillus subtilis, UniProt P00497, S294A)", "T1 construct": "Enzymes of the B. subtilis class are synthesized with an NH2 terminal propeptide and an Fe—S center; made in house; host or cells: E. coli strain TX158 (purF) with plasmid pBsF/S283A", "details": "for higher concentration required for 50% inhibition compared to wild type: ADP-GMP mixture", "experimental": "(§1) Enzyme activity was assayed by measuring the initial rate of formation of the product glutamate. […] Incubation was at 37° C. for 6 min. […] Reactions were quenched in a boiling water bath for 2 min, and glutamate was determined by the glutamate dehydrogenase method.\n(§2) Inhibition by nucleotides was determined by the standard assay to which varied concentrations of nucleotide were added. Synergistic inhibition was determined by varying the concentration of one nucleotide in the presence of a fixed concentration of a second nucleotide. Relative activity (see FIG. 1) refers to the enzyme activity at a given concentration of the varied nucleotide relative to that in the absence of the varied nucleotide. I0.5 values were calculated from plots of relative activity versus varied nucleotide concentration.\n(§3) These modified forms of amidotransferase were analyzed to determine the impact of the mutations on end-product inhibition and enzymatic activity. Inhibition by nucleotides was determined as described in Example 1."}, "[2]": {"target": "T2, glutamine PRPP amidotransferase K305Q mutant enzyme (Bacillus subtilis, UniProt P00497, K316Q)", "T2 construct": "Enzymes of the B. subtilis class are synthesized with an NH2 terminal propeptide and an Fe—S center; made in house; host or cells: E. coli strain TX158 (purF) with plasmid pBsF/K305Q", "experimental": "as §1, §2, §3"}, "[3]": {"target": "T3, glutamine PRPP amidotransferase R307Q mutant enzyme (Bacillus subtilis, UniProt P00497, R318Q)", "T3 construct": "Enzymes of the B. subtilis class are synthesized with an NH2 terminal propeptide and an Fe—S center; made in house; host or cells: E. coli strain TX158 (purF) with plasmid pBsF/R307Q", "experimental": "as §1, §2, §3"}},
  "note": "Where two headings read alike, the source gives them in different places.",
  "data": [
    {"compound": "Nc1ncnc2c1ncn2[C@@H]1O[C@H](COP(=O)(O)OP(=O)(O)O)[C@@H](O)[C@H]1O", "note": "[ADP]", "values": [
      {"measurement": "higher concentration required for 50% inhibition compared to wild type", "setting": "[1]", "result": 30, "unit": "fold"},
      {"measurement": "syn.", "setting": "[1]; fixed GMP 0.50 mM", "result": 5.0},
      {"measurement": "syn.", "setting": "[2]; fixed GMP 0.50 mM", "result": 2.6},
      {"measurement": "syn.", "setting": "[2]; fixed GMP 5.0 mM", "result": 97.0},
      {"measurement": "syn.", "setting": "[3]; fixed GMP 0.50 mM", "result": 12.0},
      {"measurement": "syn.", "setting": "[3]; fixed GMP 5.0 mM", "result": 156.0}
    ]},
    {"compound": "Nc1nc2c(ncn2[C@@H]2O[C@H](COP(=O)(O)O)[C@@H](O)[C@H]2O)c(=O)[nH]1", "note": "[GMP]", "values": [
      {"measurement": "higher concentration required for 50% inhibition compared to wild type", "setting": "[1]", "result": 13, "unit": "fold"},
      {"measurement": "syn.", "setting": "[1]; fixed ADP 0.5 mM", "result": 3.3},
      {"measurement": "syn.", "setting": "[1]; fixed ADP 2.5 mM", "result": 3.9},
      {"measurement": "I0.5 increase relative to wild type", "setting": "[1]; single nucleotide", "result": "similar"},
      {"measurement": "syn.", "setting": "[2]; fixed ADP 0.5 mM", "result": 8.3},
      {"measurement": "syn.", "setting": "[2]; fixed ADP 2.5 mM", "result": 38.0},
      {"measurement": "syn.", "setting": "[3]; fixed ADP 0.5 mM", "result": 15.0},
      {"measurement": "syn.", "setting": "[3]; fixed ADP 2.5 mM", "result": 66.0}
    ]}
  ]
}
